Laboratory results: article PMC2860736 (Pharmacological research : the official journal of the …, 2010)
Where two headings read alike, the source gives them in different places. Values belong to the compound of their own block, whether it stands above or below them.

Assays:
ovine COX-2 = test: Pulsed ultrafiltration LC-MS screening for COX-2 ligands; format: binding; conditions: for peak enhancement compared to the control chromatograms: standards screened as mixtures, 0.7 μg/mL each, control denatured COX-2; for binding to COX-2 (result in words): pulsed ultrafiltration LC-MS
ovine COX-1 = target: T1, ovine COX-1 (Ovis aries, UniProt P05979); test: COX functional assay; format: biochemical; conditions: for Inhibition of COX-1 (%) Mean ± std. dev. (N=3): compound 10 μM; for inhibition at 10 µM: read-out: Inhibition of COX-1 (%) Mean ± std. dev. (N=3)
T1 sequence (P05979 25-600): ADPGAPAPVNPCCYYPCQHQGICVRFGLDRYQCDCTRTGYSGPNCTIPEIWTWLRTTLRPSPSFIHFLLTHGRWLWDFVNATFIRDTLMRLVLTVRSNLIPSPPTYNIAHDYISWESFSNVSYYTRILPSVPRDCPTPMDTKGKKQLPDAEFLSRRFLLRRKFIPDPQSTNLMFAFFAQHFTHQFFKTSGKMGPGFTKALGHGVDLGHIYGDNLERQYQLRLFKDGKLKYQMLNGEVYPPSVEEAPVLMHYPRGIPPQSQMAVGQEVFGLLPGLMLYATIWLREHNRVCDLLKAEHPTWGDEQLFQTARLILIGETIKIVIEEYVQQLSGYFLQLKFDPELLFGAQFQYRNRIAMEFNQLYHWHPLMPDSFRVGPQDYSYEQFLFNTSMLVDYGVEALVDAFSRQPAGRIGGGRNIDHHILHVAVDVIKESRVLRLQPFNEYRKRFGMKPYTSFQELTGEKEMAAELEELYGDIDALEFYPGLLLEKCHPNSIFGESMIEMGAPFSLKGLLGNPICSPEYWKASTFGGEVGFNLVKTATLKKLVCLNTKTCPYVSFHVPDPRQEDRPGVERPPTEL

human COX-2 = target: T2, human COX-2 (Homo sapiens, UniProt P35354); test: COX functional assay; format: biochemical; conditions: for Inhibition of COX-2 (%) Mean ± std. dev. (N=3): compound 10 μM; for COX-2 selectivity (IC50 COX-1 / IC50 COX-2): ratio of IC50 values; for selectivity for COX-2 (COX-1 IC50 / COX-2 IC50): human COX-2 over COX-1; for inhibition at 10 µM: read-out: Inhibition of COX-2 (%) Mean ± std. dev. (N=3)
T2 sequence (P35354 18-604): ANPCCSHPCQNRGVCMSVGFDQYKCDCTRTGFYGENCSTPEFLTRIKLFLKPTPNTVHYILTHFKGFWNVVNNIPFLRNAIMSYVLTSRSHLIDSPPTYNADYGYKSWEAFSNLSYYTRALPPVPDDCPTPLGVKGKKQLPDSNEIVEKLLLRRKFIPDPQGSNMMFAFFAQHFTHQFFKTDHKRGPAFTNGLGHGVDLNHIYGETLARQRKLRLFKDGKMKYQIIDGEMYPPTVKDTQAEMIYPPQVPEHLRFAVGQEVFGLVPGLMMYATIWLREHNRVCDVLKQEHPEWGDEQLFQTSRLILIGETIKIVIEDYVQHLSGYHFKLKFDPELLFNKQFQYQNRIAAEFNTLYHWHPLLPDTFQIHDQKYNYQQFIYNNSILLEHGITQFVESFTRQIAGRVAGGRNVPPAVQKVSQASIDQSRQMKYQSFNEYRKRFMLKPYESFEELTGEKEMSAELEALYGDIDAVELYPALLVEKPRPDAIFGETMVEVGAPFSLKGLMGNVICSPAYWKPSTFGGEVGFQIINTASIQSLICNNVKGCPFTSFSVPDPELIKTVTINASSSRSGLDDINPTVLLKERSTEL

COX-1 [1] = conditions: read-out: IC50 COX-1; cited from earlier work
COX-2 = conditions: read-out: IC50 COX-2; cited from earlier work
COX-1 [2] = conditions: read-out: IC50 COX-1; assay using human platelets; cited from earlier work
[3] = read-out: IC50 COX-1, N=3, mean ± std. dev.
[4] = read-out: IC50 COX-2, N=3, mean ± std. dev.
[5] = IC50 COX-1, N=3, mean ± std. dev.
[6] = IC50 COX-2, N=3, mean ± std. dev.

Inhibition of COX-1 (%) Mean ± std. dev. (N=3) (ovine COX-1): 44 ± 3%
IC50 (ovine COX-1; [3]): 18 ± 5 µM
Inhibition of COX-2 (%) Mean ± std. dev. (N=3) (human COX-2): 25 ± 10%
COX-2 selectivity (IC50 COX-1 / IC50 COX-2) (human COX-2): 0.58
COX-2 selectivity (IC50 COX-1 / IC50 COX-2) (human COX-2; listed as phenethyl-trans-ferulate): inhibited COX-1 and COX-2 equally
IC50 (human COX-2; [4]): 31 ± 15 µM
Compound: COc1cc(/C=C/C(=O)OCCc2ccccc2)ccc1O [Phenethyl trans-ferulate]
peak enhancement compared to the control chromatograms (ovine COX-2): ≥ 40%

inhibition of COX-1 in the functional assay (result in words) (ovine COX-1): did not inhibit
inhibition of COX-2 in the functional assay (result in words) (human COX-2): did not inhibit
Compound: CC(C)=CCC/C(C)=C/Cc1cc2ccc(=O)oc2cc1O [Ostruthin]

Inhibition of COX-1 (%) Mean ± std. dev. (N=3) (ovine COX-1): 31 ± 10%
Inhibition of COX-2 (%) Mean ± std. dev. (N=3) (human COX-2): 25 ± 6%
IC50 (human COX-2; [4]): 73 ± 20 µM
IC50 (human COX-2; read-out: IC50 COX-2, N=3, mean ± std. dev., listed as acetyl-β-boswellic acid): ≥ 73 µM
Compound: CC(=O)O[C@@H]1CC[C@@]2(C)[C@@H](CC[C@]3(C)[C@@H]2CC=C2[C@@H]4[C@@H](C)[C@H](C)CC[C@]4(C)CC[C@]23C)[C@@]1(C)C(=O)O [Acetyl-β-boswellic acid]

binding to COX-2 (result in words) (ovine COX-2): determined to be COX-2 ligands
Inhibition of COX-1 (%) Mean ± std. dev. (N=3) (ovine COX-1): 0 ± 5%
IC50 (ovine COX-1; [3]): 25 ± 10 µM
Inhibition of COX-2 (%) Mean ± std. dev. (N=3) (human COX-2): 52 ± 20%
selectivity for COX-2 (COX-1 IC50 / COX-2 IC50) (human COX-2): ≥ 5 fold
COX-2 selectivity (IC50 COX-1 / IC50 COX-2) (human COX-2): 5.00
IC50 (human COX-2; [4]): 5 ± 5 µM
Compound: CCC/C=C1\OC(=O)C2=C1CC[C@H]1[C@H]3C=C4C(=O)O/C(=C\CCC)[C@@]4(CC3)[C@@H]21 [Senkyunolide O]

Compound: C=C(C)[C@@H]1CC[C@]2(C(=O)O)CC[C@]3(C)[C@H](CC[C@@H]4[C@@]5(C)CC[C@H](O)C(C)(C)[C@@H]5CC[C@]43C)[C@@H]12 [Betulinic acid]
IC50 (ovine COX-1; [5]): 20 ± 3 µM
inhibition at 10 µM (ovine COX-1): 32 ± 5%
inhibition of COX-2 in the functional assay (result in words) (human COX-2): almost no inhibition of COX-2
IC50 (human COX-2; [6]): > 100 µM
COX-2 selectivity (IC50 COX-1 / IC50 COX-2) (human COX-2): COX-1 specific
inhibition at 10 µM (human COX-2): 33 ± 5%

Compound: CC[C@H](CC[C@@H](C)[C@H]1CC[C@H]2[C@@H]3CC=C4C[C@@H](O)CC[C@]4(C)[C@H]3CC[C@]12C)C(C)C [β-Sitosterol]
inhibition of COX-1 in the functional assay (result in words) (ovine COX-1): did not inhibit
inhibition of COX-2 in the functional assay (result in words) (human COX-2): did not inhibit

inhibition of COX-1 in the functional assay (result in words) (ovine COX-1): did not inhibit
inhibition of COX-2 in the functional assay (result in words) (human COX-2): did not inhibit
Compound: CC(C)=CCOc1c2ccoc2cc2oc(=O)ccc12 [Isoimperatorin]

Compound: Oc1ccc(/C=C/c2cc(O)cc(O)c2)cc1 [Resveratrol, reference compound]
IC50 (ovine COX-1; [5]): 0.86 ± 0.1 µM
inhibition at 10 µM (ovine COX-1): 86 ± 7%
IC50 (COX-1 [1]): 0.83 ± 0.44 µM
IC50 (COX-2): 0.99 ± 0.4 µM

inhibition of COX-1 in the functional assay (result in words) (ovine COX-1): did not inhibit
inhibition of COX-2 in the functional assay (result in words) (human COX-2): did not inhibit
Compound: CC1(C)CC[C@]2(C)CC[C@]3(C)C(=CC[C@@H]4[C@@]5(C)CC[C@@H](O)[C@](C)(C(=O)O)[C@@H]5CC[C@]43C)[C@@H]2C1 [α-Boswellic acid]

Inhibition of COX-1 (%) Mean ± std. dev. (N=3) (ovine COX-1): 74 ± 3%
Inhibition of COX-2 (%) Mean ± std. dev. (N=3) (human COX-2): 19 ± 5%
IC50 (human COX-2; [4]): > 100 µM
IC50 (human COX-2; read-out: IC50 COX-2, N=3, mean ± std. dev., listed as acetyl-α-boswellic acid): ≥ 73 µM
Compound: CC(=O)O[C@@H]1CC[C@@]2(C)[C@@H](CC[C@]3(C)[C@@H]2CC=C2[C@@H]4CC(C)(C)CC[C@]4(C)CC[C@]23C)[C@@]1(C)C(=O)O [Acetyl-α-boswellic acid]

Compound: C[C@H]1[C@H](C)CC[C@]2(C)CC[C@]3(C)C(=CC[C@@H]4[C@@]5(C)CC[C@@H](O)[C@](C)(C(=O)O)[C@@H]5CC[C@]43C)[C@H]12 [β-Boswellic acid]
inhibition at 10 µM (ovine COX-1): 42 ± 15%
IC50 (human COX-2; [6]): > 100 µM
inhibition at 10 µM (human COX-2): 17 ± 15%

Inhibition of COX-1 (%) Mean ± std. dev. (N=3) (ovine COX-1): 39 ± 5%
Inhibition of COX-2 (%) Mean ± std. dev. (N=3) (human COX-2): 23 ± 15%
IC50 (human COX-2; [4]): 85 ± 20 µM
IC50 (human COX-2; read-out: IC50 COX-2, N=3, mean ± std. dev., listed as acetyl-11-keto-β-boswellic acid): ≥ 73 µM
Compound: CC(=O)O[C@@H]1CC[C@@]2(C)[C@@H](CC[C@]3(C)[C@@H]2C(=O)C=C2[C@@H]4[C@@H](C)[C@H](C)CC[C@]4(C)CC[C@]23C)[C@@]1(C)C(=O)O [Acetyl-11-keto-β-boswellic acid]
IC50 (COX-1 [2]): 6 µM

Compound: C=C(C)[C@@H]1CC[C@]2(C)[C@H](CC=C3[C@@H]4[C@@H](C)[C@H](C)CC[C@]4(C)CC[C@]32C)[C@@]1(C)CCC(=O)O [Roburic acid]
Inhibition of COX-1 (%) Mean ± std. dev. (N=3) (ovine COX-1): 33 ± 8%
IC50 (ovine COX-1; [3]): 5 ± 2 µM
Inhibition of COX-2 (%) Mean ± std. dev. (N=3) (human COX-2): 45 ± 5%
IC50 (human COX-2; [4]): 9 ± 3 µM

inhibition of COX-1 in the functional assay (result in words) (ovine COX-1): did not inhibit
inhibition of COX-2 in the functional assay (result in words) (human COX-2): did not inhibit
Compound: COc1ccc(-c2cc(=O)c3c(O)cc(O)cc3o2)cc1 [Linarigenin]

inhibition at 10 µM (human COX-2): 23 ± 3%
Compound: O=C(/C=C/c1ccc(O)cc1)c1ccc(O)cc1O [Isoliquiritigenin]
peak enhancement compared to the control chromatograms (ovine COX-2): ≥ 40%

Compound: C[C@H]1COC2=C1C(=O)C(=O)c1c2ccc2c1CCCC2(C)C [Cryptotanshinone]
binding to COX-2 (result in words) (ovine COX-2): determined to be COX-2 ligands
IC50 (ovine COX-1; [5]): > 100 µM
inhibition at 10 µM (ovine COX-1): 0%
IC50 (human COX-2; [6]): 22 ± 10 µM
selectivity for COX-2 (COX-1 IC50 / COX-2 IC50) (human COX-2): ≥ 5 fold
COX-2 selectivity (IC50 COX-1 / IC50 COX-2) (human COX-2): COX-2 specific
inhibition at 10 µM (human COX-2): 31 ± 20%

inhibition of COX-1 in the functional assay (result in words) (ovine COX-1): did not inhibit
inhibition of COX-2 in the functional assay (result in words) (human COX-2): did not inhibit
Compound: CC(C)=CC(O)C/C(C)=C/COc1c2ccoc2cc2oc(=O)ccc12 (centres unmarked) [Notopterol]

Compound: O=C1C[C@@H](c2ccc(O)cc2)Oc2cc(O)ccc21 [Liquiritigenin]
binding to COX-2 (result in words) (ovine COX-2): did not show sufficient binding to COX-2

inhibition of COX-1 in the functional assay (result in words) (ovine COX-1): did not inhibit
inhibition of COX-2 in the functional assay (result in words) (human COX-2): did not inhibit
Compound: CC1(C)[C@@H](O)CC[C@]2(C)[C@H]3C(=O)C=C4[C@@H]5C[C@@](C)(C(=O)O)CC[C@]5(C)CC[C@@]4(C)[C@]3(C)CC[C@@H]12 [Glycyrrhetic acid]
